Data reported in patent US9597299B2, “Method for treating gefitinib-resistant non-small-cell lung cancer” (Macau University of Science and Technology, priority 2014, dated 2017).

Assays:
Type in all cases: cell-based
[1] = tested on: H1975 cells; experiment: relative cell viability, TMS with/without compound c, H1975
[2] = tested on: H358 (EGFR wild-type) NSCLC cells; experiment: cell viability assay, H358; conditions: Homo sapiens, NCI-H358
Description: (§1) Table 1 summarizes the IC50 values of five different cell lines treated with TMS.

[3] = tested on: H1975 cells; experiment: cell morphology and flow cytometry (apoptosis), H1975; conditions: gefitinib-resistant NSCLC cell lines (H1975), FIG. 2
[4] = tested on: EGFR PY1173; experiment: immunoblot analysis of EGFR PY1173, H1975 cell lysate
Description: (§2) Moreover, the inhibition of PY1173 activation happens as early as in 1 hour after TMS treatment.

[5] = tested on: H1975 cells; experiment: cell morphology, flow cytometry and relative cell viability, TMS with/without JNK inhibitor, H1975; conditions: TMS alone, groups: control, FIG. 6
[6] = tested on: EGFR PY1173; experiment: immunoblot analysis of EGFR PY1173, A549 cell lysate; conditions: A549 cells
Description: as §2

[7] = tested on: A549 (EGFR wild-type) NSCLC cells; experiment: cell viability assay, A549; conditions: Homo sapiens
Description: as §1

[8] = tested on: H1975 (EGFR double mutation) gefitinib-resistant NSCLC cells; experiment: cell viability assay, H1975
Description: as §1

[9] = tested on: mammalian target of rapamycin (mTOR); experiment: proteomic analysis of apoptosis markers; conditions: proteomics, gefitinib-resistant NSCLC cells, FIG. 3
Description: FIG. 3 is a schematic diagram showing the proteomic analysis result of TMS on different markers involved in apoptosis of gefitinib-resistant non-small-cell lung cancer cells.

[10] = tested on: H820 (EGFR double mutation) gefitinib-resistant NSCLC cells; experiment: cell viability assay, H820; conditions: NCI-H820
Description: as §1

[11] = tested on: BEAS-2B (normal epithelial cells); experiment: cell viability assay, BEAS-2B; conditions: Homo sapiens
Description: as §1

Structure (SMILES)	effect of compound c on the effect of TMS ([1]; H1975, FIG. 4)	apoptosis induction / relative cell viability among four treatment groups ([1]; TMS alone (40 nM), groups: control, compound c, TMS, FIG. 4)	IC50 [2] [µM]	induction of apoptosis [3]	time to inhibition of PY1173 activation after TMS treatment ([4]; H1975, fixed concentration of TMS) [h]	activation of EGFR PY1173 ([4]; TMS at 40, 60 and 80 nM, gefitinib-resistant NSCLC cells (H1975))	apoptosis induction / relative cell viability among four treatment groups [5]	inhibitory effect on EGFR (PY1173) [6]	suppression of EGFR PY1173 ([6]; 10-time higher concentration of TMS)	IC50 [7] [µM]	selectivity for gefitinib-resistant NSCLC cells over normal and EGFR wild-type cells ([8]; H1975 and H820 versus BEAS-2B, A549, H358)	IC50 ([8]; Homo sapiens, NCI-H1975, H1975 (EGFR double mutation), cell viability) [µM]	effect on mTOR [9]	IC50 [10] [µM]	IC50 [11] [µM]
c1cc(-c2cnn3cc(-c4ccc(OCCN5CCCCC5)cc4)cnc23)ccn1 [compound c, reference compound]	counteracts the effect of TMS	–	–	–	–	–	–	–	–	–	–	–	–	–	–
COc1ccc(/C=C\c2cc(OC)c(OC)c(OC)c2)cc1 [TMS, (Z)3,4,5,4′-tetramethoxystilbene]	–	most effective in inducing apoptosis	> 0.4	inducing apoptosis	≤ 1	inhibits the activation of EGFR PY1173	most effective in inducing apoptosis	not detected	no suppression of EGFR PY1173 was observed	> 0.4	selectivity on gefitinib-resistant NSCLC cells	0.0572 ± 0.0135	significantly inhibited	0.136 ± 0.0359	> 0.4
